Laboratory results published in patent US20260083865A1, “PROSTATE SPECIFIC MEMBRANE ANTIGEN (PSMA) LIGANDS AND USE THEREOF” (priority 2022, published 2026).
Numbered stars: 1 amine (or outer) side, 2 acyl side, 3 side chain; on linkers, the order of the positions; unused ones are H or OH. Bridge positions count the residues as written; N and C are the ends. Square brackets hold non-standard residues; d marks the D form. Side chains are listed from the residue outwards. Peptide text beside a SMILES is read from it. * marks the point of attachment. TtdsdLys(DOTA)NH2 = NC(=O)[C@@H](CCCCNC(=O)CN1CCN(CC(=O)O)CCN(CC(=O)O)CCN(CC(=O)O)CC1)NC(=O)CCC(=O)NCCCOCCOCCOCCCN*; X11 = O=C(CCCC[C@@H]1SC[C@@H]2NC(=O)N[C@@H]21)NCCCOCCOCCOCCCNC(=O)CCC(=O)NCCCOCCOCCOCCCN*; DOTA = O=C(O)CN1CCN(CC(=O)O)CCN(CC(=O)*)CCN(CC(=O)O)CC1; Phe(3-Cl) = N[C@@H](Cc1cccc(Cl)c1)C(=O)O; Phe(4-Cl) = N[C@@H](Cc1ccc(Cl)cc1)C(=O)O; X1 = O=C(CC1CCN([*:1])CC1)[*:2]; Cit = NC(=O)NCCC[C@H](N)C(=O)O; Suc = O=C(CCC(=O)[*:2])[*:1]; Tle = CC(C)(C)[C@H](N)C(=O)O; Pyridin(2-yl) = c1ccc(*)nc1; 4Amb = NCc1ccc(C(=O)O)cc1; Nle = CCCC[C@H](N)C(=O)O; Orn = NCCC[C@H](N)C(=O)O; Hexanoyl = CCCCCC(=O)*; Aib = CC(C)(N)C(=O)O; CO = O=C([*:1])[*:2]; CH2 = C([*:1])[*:2]; Ahx = NCCCCCC(=O)O; βAla = NCCC(=O)O; NHBu = CCCCN*

Experiments:
[1] = target: T1, PSMA-expressing C4-2 cells (Homo sapiens, UniProt Q04609); test: FACS binding assay (competition with 50 nM PSM-0183); conditions: FACS binding, C4-2 cells, category; read-out: pIC50 [C4-2] CAT (converted)
T1 construct: PSMA-expressing C4-2 cells (ATCC, Cat. No. CRL-3314) were cultured in RPMI-1640; host or cells: C4-2 cells
Procedure, shortened: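 C4-2 cells were incubated 1 h at 4 °C with 50 nM AF488-labelled peptide PSM-0183 plus increasing test compound concentrations, then washed twice in ice-cold buffer. Median fluorescence in the AF488 channel was read by flow cytometry. IC50/pIC50 was derived by 4PL fitting of MFI versus concentration.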

[2] = target: T2, Fc-fusion protein of human PSMA (hPSMA-Fc) (Homo sapiens, UniProt Q04609); test: Surface plasmon resonance assay (Biacore T200, single cycle kinetic); format: binding; conditions: PSMA SPR assay, category; read-out: pKD CAT (converted)
T2 construct: purchased Acro Biosystems PSA-H5264
Procedure, shortened: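 hPSMA-Fc was captured (~1000 RU) on an Fc-binding-peptide CM5 chip, and compounds were run in single cycle kinetic mode at 25° C in HBST with 0.1% DMSO. Double-blank-corrected sensorgrams were fitted to a 1:1 Langmuir model to give KD, reported as pKD.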

T1 sequence (Q04609 whole entry): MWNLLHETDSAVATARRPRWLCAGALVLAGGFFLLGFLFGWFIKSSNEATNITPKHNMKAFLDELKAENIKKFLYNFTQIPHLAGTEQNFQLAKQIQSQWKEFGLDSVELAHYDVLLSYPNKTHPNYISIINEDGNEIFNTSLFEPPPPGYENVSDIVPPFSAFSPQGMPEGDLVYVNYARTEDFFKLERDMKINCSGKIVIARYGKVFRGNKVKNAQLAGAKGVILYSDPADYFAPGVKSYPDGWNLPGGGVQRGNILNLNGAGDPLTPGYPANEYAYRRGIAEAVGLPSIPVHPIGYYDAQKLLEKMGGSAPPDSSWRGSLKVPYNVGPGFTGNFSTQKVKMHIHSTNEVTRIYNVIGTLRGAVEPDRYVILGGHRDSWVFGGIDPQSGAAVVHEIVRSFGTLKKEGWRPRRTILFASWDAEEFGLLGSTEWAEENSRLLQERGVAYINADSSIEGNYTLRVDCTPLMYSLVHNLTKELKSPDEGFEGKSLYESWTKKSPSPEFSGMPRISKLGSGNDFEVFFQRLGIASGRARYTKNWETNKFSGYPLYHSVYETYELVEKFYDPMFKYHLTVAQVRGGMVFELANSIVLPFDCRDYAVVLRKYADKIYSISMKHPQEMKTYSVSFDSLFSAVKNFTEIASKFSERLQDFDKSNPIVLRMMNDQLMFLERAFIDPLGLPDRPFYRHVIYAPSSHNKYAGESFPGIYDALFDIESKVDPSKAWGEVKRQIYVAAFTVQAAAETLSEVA
T2 sequence (Q04609 44-750 limits assumed): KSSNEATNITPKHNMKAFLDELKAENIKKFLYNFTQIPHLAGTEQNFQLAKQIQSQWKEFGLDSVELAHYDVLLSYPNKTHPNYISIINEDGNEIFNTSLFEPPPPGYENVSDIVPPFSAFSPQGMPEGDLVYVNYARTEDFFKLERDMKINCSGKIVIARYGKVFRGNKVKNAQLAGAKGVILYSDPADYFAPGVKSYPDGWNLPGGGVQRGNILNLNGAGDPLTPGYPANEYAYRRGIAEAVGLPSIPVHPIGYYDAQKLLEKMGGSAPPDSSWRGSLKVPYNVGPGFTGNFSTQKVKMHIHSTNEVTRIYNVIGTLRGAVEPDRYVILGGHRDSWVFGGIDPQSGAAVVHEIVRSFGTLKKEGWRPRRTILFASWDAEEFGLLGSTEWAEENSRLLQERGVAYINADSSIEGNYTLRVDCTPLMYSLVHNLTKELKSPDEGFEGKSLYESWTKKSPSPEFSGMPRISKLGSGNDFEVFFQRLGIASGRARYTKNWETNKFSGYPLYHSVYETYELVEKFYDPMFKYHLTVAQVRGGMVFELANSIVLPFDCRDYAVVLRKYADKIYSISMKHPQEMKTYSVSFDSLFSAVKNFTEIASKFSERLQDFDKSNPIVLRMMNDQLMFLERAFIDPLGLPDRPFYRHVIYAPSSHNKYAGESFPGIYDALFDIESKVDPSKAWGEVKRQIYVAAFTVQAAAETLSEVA

SMILES | IC50 [1] | Kd [2]
CC(=O)N[C@H](C(=O)NC(C)(C)C(=O)N[C@@H](Cc1ccccc1)C(=O)N[C@H]1CSCSC[C@@H](C(=O)N[C@H](C(=O)N[C@H](C(=O)N[C@@H](CC(=O)O)C(N)=O)[C@@H](C)O)C(C)(C)C)NC(=O)[C@H](CC(N)=O)NC(=O)[C@H](C)NC(=O)[C@H](CCCNC(=N)N)NC(=O)[C@H](CCCCN)NC1=O)[C@@H](C)O [PSM-0567, Ac-Thr-Aib-Phe-[Smc-Lys-Arg-Ala-Asn-Cys]-Tle-Thr-Asp-NH2] (Ac-T[Aib]FCKRANC[Tle]TD-NH2; linker 4-9 via CH2) | < 200 nM | < 12.6 nM
CCCCCC(=O)N[C@H](C(=O)N[C@@H](C)C(=O)N[C@@H](Cc1ccccc1)C(=O)N[C@H]1CSSC[C@@H](C(=O)N[C@H](C(=O)N[C@H](C(=O)N[C@@H](CC(=O)O)C(=O)NCCCOCCOCCOCCCNC(=O)CCC(=O)N[C@H](CCCCNC(=O)CN2CCN(CC(=O)O)CCN(CC(=O)O)CCN(CC(=O)O)CC2)C(N)=O)[C@@H](C)O)C(C)(C)C)NC(=O)[C@H](CC(N)=O)NC(=O)[C@H](C)NC(=O)[C@H](CCCNC(=N)N)NC(=O)[C@H](CCCCN)NC1=O)[C@@H](C)O [PSM-0568, Hex-Thr-Ala-Phe-[Cys-Lys-Arg-Ala-Asn-Cys]-Tle-Thr-Asp-Ttds-lys(DOTA)-NH2] (Hexanoyl-TAFCKRANC[Tle]TD-{TtdsdLys(DOTA)NH2}; disulfide 4-9) | < 200 nM | 12.6 to 126 nM
CC(=O)NC(=N)NCCC[C@@H]1NC(=O)[C@H](CCCCN)NC(=O)[C@@H](NC(=O)[C@H](Cc2ccc(Cl)cc2)NC(=O)C(C)(C)NC(=O)[C@@H](NC(C)=O)[C@@H](C)O)CSSC[C@@H](C(=O)N[C@H](C(=O)N[C@H](C(N)=O)[C@@H](C)O)C(C)(C)C)NC(=O)[C@H](CC(N)=O)NC(=O)C(C)(C)NC1=O [PSM-0569, Ac-Thr-Aib-Pcf-[Cys-Lys-Arg(Ac)-Aib-Asn-Cys]-Tle-Thr-NH2] (Ac-T[Aib][Phe(4-Cl)]CKR(Ac)[Aib]NC[Tle]T-NH2; disulfide 4-9) | < 200 nM | < 12.6 nM
CCCC[C@@H]1NC(=O)[C@@H](NC(=O)[C@H](Cc2ccc(Cl)cc2)NC(=O)C(C)(C)NC(=O)[C@@H](NC(C)=O)[C@@H](C)O)CSSC[C@@H](C(=O)N[C@H](C(=O)N[C@H](C(N)=O)[C@@H](C)O)C(C)(C)C)NC(=O)[C@H](CC(N)=O)NC(=O)C(C)(C)NC(=O)[C@H](CCCNC(=N)NC(C)=O)NC1=O [PSM-0570, Ac-Thr-Aib-Pcf-[Cys-Nle-Arg(Ac)-Aib-Asn-Cys]-Tle-Thr-NH2] (Ac-T[Aib][Phe(4-Cl)]C[Nle]R(Ac)[Aib]NC[Tle]T-NH2; disulfide 4-9) | < 200 nM | 12.6 to 126 nM
CCCCNC(=O)N[C@H](C(=O)NC(C)(C)C(=O)N[C@@H](Cc1cccc(Cl)c1)C(=O)N[C@H]1CSSC[C@@H](C(=O)N[C@H](C(=O)N[C@H](C(=O)N2CCC(CC(=O)N[C@H](CCCCNC(=O)CN3CCN(CC(=O)O)CCN(CC(=O)O)CCN(CC(=O)O)CC3)C(N)=O)CC2)[C@@H](C)O)C(C)(C)C)NC(=O)[C@H](CC(N)=O)NC(=O)C(C)(C)NC(=O)[C@H](CCCNc2ccccn2)NC(=O)[C@H](CCCCN)NC1=O)[C@@H](C)O [PSM-0571, nBuCAyl-Thr-Aib-Mcf-[Cys-Lys-Opy-Aib-Asn-Cys]-Tle-Thr-Cmp-lys(DOTA)-NH2] ({NHBu-CO}-T[Aib][Phe(3-Cl)]CK[Orn](Pyridin(2-yl))[Aib]NC[Tle]T[X1][dK](DOTA)-NH2; disulfide 4-9) | 200 to 1260 nM | 12.6 to 126 nM
CC(C)(NC(=O)c1ccc(CNC(=O)CN2CCN(CC(=O)O)CCN(CC(=O)O)CCN(CC(=O)O)CC2)cc1)C(=O)N[C@@H](Cc1ccccc1)C(=O)N[C@H]1CSSC[C@@H](C(=O)N[C@H](C(=O)NCCC(N)=O)C(C)(C)C)NC(=O)[C@H](CC(N)=O)NC(=O)C(C)(C)NC(=O)[C@H](CCCNC(=N)N)NC(=O)[C@H](CCCCN)NC1=O [PSM-0574, DOTA-Pamb-Aib-Phe-[Cys-Lys-Arg-Aib-Asn-Cys]-Tle-Bal-NH2] ({DOTA-4Amb}-[Aib]FCKR[Aib]NC[Tle][βAla]-NH2; disulfide 3-8) | < 200 nM | 12.6 to 126 nM
C[C@@H](O)[C@H](NC(=O)[C@@H](NC(=O)[C@@H]1CSSC[C@H](NC(=O)[C@H](Cc2ccc(Cl)cc2)NC(=O)C(C)(C)NC(=O)[C@@H](NC(=O)CCC(=O)NCCCOCCOCCOCCCNC(=O)CCC(=O)NCCCOCCOCCOCCCNC(=O)CCCC[C@@H]2SC[C@@H]3NC(=O)N[C@@H]32)[C@@H](C)O)C(=O)N[C@@H](CCCCN)C(=O)N[C@@H](CCCNC(=N)N)C(=O)NC(C)(C)C(=O)N[C@@H](CC(N)=O)C(=O)N1)C(C)(C)C)C(N)=O [PSM-0575, Bio-Ttds-Ttds-Thr-Aib-Pcf-[Cys-Lys-Arg-Aib-Asn-Cys]-Tle-Thr-NH2] ({X11-Suc}-T[Aib][Phe(4-Cl)]CKR[Aib]NC[Tle]T-NH2; disulfide 4-9) | < 200 nM | < 12.6 nM
CCCCCC(=O)N[C@H](C(=O)NC(C)(C)C(=O)N[C@@H](Cc1ccccc1)C(=O)N[C@H]1CSSC[C@@H](C(=O)N[C@H](C(=O)N[C@H](C(=O)NCCCOCCOCCOCCCNC(=O)CCC(=O)N[C@H](CCCCNC(=O)CN2CCN(CC(=O)O)CCN(CC(=O)O)CCN(CC(=O)O)CC2)C(N)=O)[C@@H](C)O)C(C)(C)C)NC(=O)[C@H](CC(N)=O)NC(=O)C(C)(C)NC(=O)[C@H](CCCNC(=N)N)NC(=O)[C@H](CCCCN)NC1=O)[C@@H](C)O [PSM-0576, Hex-Thr-Aib-Phe-[Cys-Lys-Arg-Aib-Asn-Cys]-Tle-Thr-Ttds-lys(DOTA)-NH2] (Hexanoyl-T[Aib]FCKR[Aib]NC[Tle]T-{TtdsdLys(DOTA)NH2}; disulfide 4-9) | < 200 nM | < 12.6 nM
C[C@@H](O)[C@H](NC(=O)[C@@H](NC(=O)[C@@H]1CSSC[C@H](NC(=O)[C@H](Cc2ccccc2)NC(=O)C(C)(C)NC(=O)CCC(=O)O)C(=O)N[C@@H](CCCCN)C(=O)N[C@@H](CCCNC(=N)N)C(=O)NC(C)(C)C(=O)N[C@@H](CC(N)=O)C(=O)N1)C(C)(C)C)C(N)=O [PSM-0577, HO-Succinyl-Aib-Phe-[Cys-Lys-Arg-Aib-Asn-Cys]-Tle-Thr-NH2] (Suc-[Aib]FCKR[Aib]NC[Tle]T-NH2; disulfide 3-8) | < 200 nM | 12.6 to 126 nM

Results, then the molecule that gave them:

IC50 [1] | Kd [2] | SMILES
< 200 nM | 12.6 to 126 nM | CCCC[C@H](NC(=O)[C@@H]1CSSC[C@H](NC(=O)[C@H](Cc2ccccc2)NC(=O)[C@H](C)NC(=O)[C@@H](NC(C)=O)[C@@H](C)O)C(=O)N[C@@H](CCCCN)C(=O)N[C@@H](CCCNC(=N)N)C(=O)NC(C)(C)C(=O)N[C@@H](CC(N)=O)C(=O)N1)C(=O)N[C@H](C(=O)N[C@@H](CC(=O)O)C(N)=O)[C@@H](C)O [PSM-0578, Ac-Thr-Ala-Phe-[Cys-Lys-Arg-Aib-Asn-Cys]-Nle-Thr-Asp-NH2] (Ac-TAFCKR[Aib]NC[Nle]TD-NH2; disulfide 4-9)
1260 to 3160 nM | > 501 nM | CCCC[C@H](NC(=O)[C@@H]1CSSC[C@H](NC(=O)[C@H](Cc2ccccc2)NC(=O)[C@H](C)NC(=O)[C@@H](NC(C)=O)[C@@H](C)O)C(=O)N[C@@H](CCCCN)C(=O)N[C@@H](C)C(=O)N[C@@H](C)C(=O)N[C@@H](CC(N)=O)C(=O)N1)C(=O)N[C@H](C(=O)N[C@@H](CC(=O)O)C(N)=O)[C@@H](C)O [PSM-0581, Ac-Thr-Ala-Phe-[Cys-Lys-Ala-Ala-Asn-Cys]-Nle-Thr-Asp-NH2] (Ac-TAFCKAANC[Nle]TD-NH2; disulfide 4-9)
< 200 nM | < 12.6 nM | CC(=O)N[C@H](C(=O)NC(C)(C)C(=O)N[C@@H](Cc1ccccc1)C(=O)N[C@H]1CSSC[C@@H](C(=O)N[C@H](C(=O)N[C@H](C(N)=O)[C@@H](C)O)C(C)(C)C)NC(=O)[C@H](CC(N)=O)NC(=O)[C@H](CCCCNC(=O)CCCCCNC(=O)CN2CCN(CC(=O)O)CCN(CC(=O)O)CCN(CC(=O)O)CC2)NC(=O)[C@H](CCCNC(N)=O)NC(=O)[C@H](CCCCN)NC1=O)[C@@H](C)O [PSM-0582, Ac-Thr-Aib-Phe-[Cys-Lys-Arg-Lys(DOTA-Ahx)-Asn-Cys]-Tle-Thr-NH2] (Ac-T[Aib]FCK[Cit]K([Ahx-DOTA])NC[Tle]T-NH2; disulfide 4-9)
< 200 nM | < 12.6 nM | C[C@@H](O)[C@H](NC(=O)[C@@H](NC(=O)[C@@H]1CSSC[C@H](NC(=O)[C@H](Cc2cccc(Cl)c2)NC(=O)C(C)(C)NC(=O)[C@@H](NC(=O)CC2CCN(C(=O)CN3CCN(CC(=O)O)CCN(CC(=O)O)CCN(CC(=O)O)CC3)CC2)[C@@H](C)O)C(=O)N[C@@H](CCCCN)C(=O)N[C@@H](CCCNC(=N)N)C(=O)NC(C)(C)C(=O)N[C@@H](CC(N)=O)C(=O)N1)C(C)(C)C)C(N)=O [PSM-0583, DOTA-Cmp-Thr-Aib-Mcf-[Cys-Lys-Arg-Aib-Asn-Cys]-Tle-Thr-NH2] ({DOTA}-[X1]T[Aib][Phe(3-Cl)]CKR[Aib]NC[Tle]T-NH2; disulfide 5-10)
< 200 nM | < 12.6 nM | CC(=O)N[C@H](C(=O)NC(C)(C)C(=O)N[C@@H](Cc1ccc(Cl)cc1)C(=O)N[C@H]1CSSC[C@@H](C(=O)N[C@H](C(=O)N[C@H](C(N)=O)[C@@H](C)O)C(C)(C)C)NC(=O)[C@H](CC(C)C)NC(=O)C(C)(C)NC(=O)[C@H](CCCNC(=N)N)NC(=O)[C@H](CCCCN)NC1=O)[C@@H](C)O [PSM-0584, Ac-Thr-Aib-Pcf-[Cys-Lys-Cit-Aib-Leu-Cys]-Tle-Thr-NH2] (Ac-T[Aib][Phe(4-Cl)]CKR[Aib]LC[Tle]T-NH2; disulfide 4-9)
